Measured values: publication PMC10791743, “Selective CK1α degraders exert antiproliferative activity against a broad range of human cancer cell lines” (Nature Communications, 2024)
Where “and” joins values, the source holds several entries; their conditions need not be identical. Identical values can stand only once.

Columns and labels:
CRBN = target: T1, CRBN (Homo sapiens, UniProt Q96SW2); experiment: CRBN fluorescence polarization (FP) displacement assay; type: binding; design: key: % activity normalized to DMSO (0) and CC-220 (100) controls
T1 construct: 6XHis (N)
Experimental: The assay cocktail was prepared by combining 6XHis-CRBN-DDB1 protein (200 nM) and Cy5-O-Len probe (30 nM) in 20 mM HEPES pH 7, 150 mM NaCl, 0.005% Tween-20 assay buffer. […] Then 20 μL of the assay cocktail was dispensed to wells of the assay plate with a Multidrop Combi Reagent Dispenser (Thermo Fisher Scientific, USA). The plates were incubated in the dark for 1 h at room temperature and then read on an Envision plate reader (Perkin Elmer, USA). Raw intensity values for each compound at each concentration were normalized to obtain % activity using the following equation: 100×[(mean(negctrl)–compound)/(mean (negctrl)–mean (posctrl))], and then pooled from replicate experiments prior to fitting. Here, negctrl and posctrl refer to the negative (DMSO) and positive controls (CC-220) on each plate. Dose-response curves were fit to the Hill equation using the GraphPad Prism (version 10).

CK1α = CK1α (Homo sapiens, UniProt P48729+Q96SW2); experiment: CK1α HiBiT live-cell kinetic degradation assay (HEK293 cells); type: cell-based; design: engineered by CRISPR/Cas9 to express endogenous CK1α (HEK293 cells) with a HiBiT tag; conditions: for Dmax at 0.111 µM: CK1, 0.111 uM; for Dmax at 0.111 µM / Dmax at 0.333 µM / Dmax at 1 µM / Dmax at 3 µM / Dmax at 10 µM: read-out: CK1a Percent Maximum Degradation; for Dmax at 0.333 µM: CK1, 0.333 uM; for Dmax at 1 µM: CK1, 1 uM; for Dmax at 3 µM: CK1, 3 uM; for Dmax at 10 µM: CK1, 10 uM; for DC50: HEK293, at 4 h
Source text: To measure cellular protein levels, we used cell lines that have been engineered by CRISPR/Cas9 to express endogenous CK1α (HEK293 cells) or IKZF1 (Jurkat cells) with a HiBiT tag, which when coupled with LgBiT expression forms NanoBiT, a bioluminescent protein that can be used for kinetic studies of protein degradation. […] Cell viability was also monitored with CellTiter Glo 2.0 (Promega) at the completion of the experiment to ensure that loss of protein was not a consequence of a loss of cell viability.
IKZF1-HiBiT Jurkat LgBiT stable cells were seeded at 60,000 cells/well in 50% growth media/50% CO2 independent medium supplemented with 10% FBS and 1× Endurazine substrate. […] A dose–response curve was generated by performing 3-fold dilutions of each compound including a DMSO-only control in growth media. For live cell kinetic degradation assays, diluted compounds were added to CK1α and β-catenin plates and placed in a GloMax Discover (Promega, Cat. #GM3000) preheated to 37 °C or added to IKZF1 plates and placed in a CLARIOstar Plus (BMG LABTECH) preheated to 37 °C.
Relative protein level was determined based on normalization to the DMSO control and reported at Fractional RLUs. Degradation rate and degradation maximums were calculated from Fractional RLUs as previously described[38] using GraphPad Prism software. β-catenin stabilization time of onset for each concentration curve was calculated in GraphPad Prism by fitting an unconstrained plateau followed by one phase association model using the equation below (Y = IF(X < X0, Y0,Y0+(Plateau−Y0)*(1−exp(−K*(X−X0))))). The parameter, X0 was used as time of onset for each compound concentration.

CK1α, sequence (P48729 whole entry): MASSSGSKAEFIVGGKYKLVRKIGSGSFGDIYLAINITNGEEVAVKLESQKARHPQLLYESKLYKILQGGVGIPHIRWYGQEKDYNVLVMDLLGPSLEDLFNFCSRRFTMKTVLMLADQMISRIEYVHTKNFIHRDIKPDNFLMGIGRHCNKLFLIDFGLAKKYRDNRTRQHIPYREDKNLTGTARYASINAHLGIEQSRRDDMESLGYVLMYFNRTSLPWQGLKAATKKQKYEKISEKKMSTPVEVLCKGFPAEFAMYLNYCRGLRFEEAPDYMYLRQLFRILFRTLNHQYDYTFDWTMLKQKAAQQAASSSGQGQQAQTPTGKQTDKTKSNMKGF
CK1α, sequence (Q96SW2 whole entry): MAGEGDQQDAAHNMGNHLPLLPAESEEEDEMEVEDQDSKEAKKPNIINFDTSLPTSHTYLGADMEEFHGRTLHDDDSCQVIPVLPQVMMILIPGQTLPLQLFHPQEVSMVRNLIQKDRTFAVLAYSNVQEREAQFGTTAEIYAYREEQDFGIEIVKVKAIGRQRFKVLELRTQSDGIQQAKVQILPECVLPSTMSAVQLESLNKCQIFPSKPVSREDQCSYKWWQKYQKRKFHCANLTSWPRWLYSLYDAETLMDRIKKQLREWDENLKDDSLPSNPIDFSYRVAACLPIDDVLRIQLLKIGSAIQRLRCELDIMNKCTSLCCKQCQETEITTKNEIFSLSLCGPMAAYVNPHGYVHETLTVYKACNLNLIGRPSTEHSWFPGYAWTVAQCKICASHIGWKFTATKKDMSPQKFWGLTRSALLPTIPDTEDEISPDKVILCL
CK1α, sequence (Q16531 whole entry partner): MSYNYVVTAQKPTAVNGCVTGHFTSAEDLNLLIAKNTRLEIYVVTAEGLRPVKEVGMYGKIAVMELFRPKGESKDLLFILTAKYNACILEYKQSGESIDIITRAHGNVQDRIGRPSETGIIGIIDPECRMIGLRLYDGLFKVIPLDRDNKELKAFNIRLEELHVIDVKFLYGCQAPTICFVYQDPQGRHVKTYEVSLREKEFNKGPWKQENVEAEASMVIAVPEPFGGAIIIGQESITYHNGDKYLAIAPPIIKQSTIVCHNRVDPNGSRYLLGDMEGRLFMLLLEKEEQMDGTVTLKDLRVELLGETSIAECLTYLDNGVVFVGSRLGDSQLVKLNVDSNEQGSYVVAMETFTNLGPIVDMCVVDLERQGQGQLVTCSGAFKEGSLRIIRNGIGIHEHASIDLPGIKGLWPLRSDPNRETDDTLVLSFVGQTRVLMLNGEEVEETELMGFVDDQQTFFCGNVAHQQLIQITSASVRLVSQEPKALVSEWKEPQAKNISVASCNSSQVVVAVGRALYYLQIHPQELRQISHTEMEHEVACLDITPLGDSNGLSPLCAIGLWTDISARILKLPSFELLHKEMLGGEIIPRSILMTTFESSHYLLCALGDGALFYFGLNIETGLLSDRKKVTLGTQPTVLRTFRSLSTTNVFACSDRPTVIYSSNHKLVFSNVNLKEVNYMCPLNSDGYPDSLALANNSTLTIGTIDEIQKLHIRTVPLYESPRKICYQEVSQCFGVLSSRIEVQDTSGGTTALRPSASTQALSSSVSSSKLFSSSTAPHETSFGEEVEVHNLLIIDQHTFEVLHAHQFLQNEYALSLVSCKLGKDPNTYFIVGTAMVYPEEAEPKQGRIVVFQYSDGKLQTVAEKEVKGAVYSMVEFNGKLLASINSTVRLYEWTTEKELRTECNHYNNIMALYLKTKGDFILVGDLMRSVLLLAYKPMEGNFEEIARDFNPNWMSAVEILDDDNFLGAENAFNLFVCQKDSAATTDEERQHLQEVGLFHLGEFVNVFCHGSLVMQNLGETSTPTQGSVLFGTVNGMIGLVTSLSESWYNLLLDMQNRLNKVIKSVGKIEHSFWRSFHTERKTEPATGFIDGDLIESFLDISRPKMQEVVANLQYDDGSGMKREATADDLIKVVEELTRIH
T1 sequence (Q96SW2 whole entry): as the sequence (Q96SW2 whole entry) above
T1 sequence (Q16531 whole entry partner): as the sequence (Q16531 whole entry partner) above

Compound	CK1a Degradation Rate Constant (CK1α; 0.111 uM)	CK1a Degradation Rate Constant (CK1α; 0.333 uM)	CK1a Degradation Rate Constant (CK1α; 1 uM)	CK1a Degradation Rate Constant (CK1α; 3 uM)	CK1a Degradation Rate Constant (CK1α; 10 uM)	Dmax at 0.111 µM (CK1α) [%]	Dmax at 0.333 µM (CK1α) [%]	Dmax at 1 µM (CK1α) [%]	Dmax at 3 µM (CK1α) [%]	Dmax at 10 µM (CK1α; replicates) [%]	CK1α degradation depth (HiBiT) (CK1α; HEK293)	DC50 (CK1α) [nM]	CK1a Percent Maximum Degradation (CK1α; 0.111 uM)	CK1a Percent Maximum Degradation (CK1α; 0.333 uM)	CK1a Percent Maximum Degradation (CK1α; 1 uM)	CK1a Percent Maximum Degradation (CK1α; 3 uM)	CK1a Percent Maximum Degradation (CK1α; 10 uM, replicates)	further results
Cc1cccc(C(=O)Nc2ccc3c(c2)CN(C2CCC(=O)NC2=O)C3=O)c1 (stereo not drawn) [SJ0040]	1.349 λ/hour	1.489 λ/hour	1.645 λ/hour	1.768 λ/hour	1.807 λ/hour	85.1	88.2	87.9	87.3	89	near-complete degradation	10	–	–	–	–	–	CRBN binding FP, Activity (CRBN; SJ10040, [Compound] 2.71597 mM): 47.7349 and 37.554 and 42.475; CRBN binding FP, Activity (CRBN; SJ10040, [Compound] 8.14792 mM): 56.459 and 48.508 and 56.8103; CRBN binding FP, Activity (CRBN; SJ10040, [Compound] 24.44375 mM): 60.7319 and 59.4621 and 64.1617; CRBN binding FP, Activity (CRBN; SJ10040, [Compound] 73.33125 mM): 69.456 and 67.5893 and 79.2322; CK1a Percent Maximum Degradation (CK1α; 0.111 uM, listed as SJ10040): 87.09% and 81.49% and 82.97%; CK1a Percent Maximum Degradation (CK1α; 0.333 uM, listed as SJ10040): 81.30% and 83.99% and 85.23%; CK1a Percent Maximum Degradation (CK1α; 1 uM, listed as SJ10040): 85.32% and 82.59% and 87.28%; CK1a Percent Maximum Degradation (CK1α; 3 uM, listed as SJ10040): 84.24% and 83.34% and 82.73%; CK1a Percent Maximum Degradation (CK1α; 10 uM, replicates, listed as SJ10040): 89.47% and 88.18% and 86.50%
O=C1CCC(N2Cc3cc(Nc4noc5ccccc45)ccc3C2=O)C(=O)N1 (stereo not drawn) [SJ3149]	2.872 λ/hour	3.25 λ/hour	3.334 λ/hour	3.448 λ/hour	3.507 λ/hour	90.6	91.9	92.6	92.7	95.4	near-complete degradation	6	90.93% and 90.25% and 91.10%	91.59% and 92.14% and 92.11%	92.68% and 92.87% and 92.05%	93.01% and 93.23% and 92.96%	95.39% and 95.59% and 95.66%	CRBN binding FP, Activity (CRBN; SJ3149, [Compound] 0.25625 mM): 17.1311 and 16.8724 and 13.6243; CRBN binding FP, Activity (CRBN; SJ3149, [Compound] 0.76875 mM): 34.3137 and 35.3073 and 29.4577; CRBN binding FP, Activity (CRBN; SJ3149, [Compound] 2.31250 mM): 56.4886 and 56.6964 and 54.8148; CRBN binding FP, Activity (CRBN; SJ3149, [Compound] 6.93750 mM): 75.4128 and 74.3041 and 71.3624; CRBN binding FP, Activity (CRBN; SJ3149, [Compound] 20.81250 mM): 81.1017 and 84.4669 and 74.3386; CRBN binding FP, Activity (CRBN; SJ3149, [Compound] 62.50000 mM): 71.4654 and 75.3676 and 66.9577; CK1α degradation rate relative to SJ0040 (CK1α; HEK293): ~2 fold; CK1α degradation rate relative to lenalidomide (CK1α; HEK293): ~10 fold; CK1α degradation within the first 30 min (CK1α; at most concentrations): > 50%
O=C1CCC(N2Cc3c(CNC(=O)c4ccc(F)cc4)cccc3C2=O)C(=O)N1 (stereo not drawn) [SJ7095]	0.8978 λ/hour	1.129 λ/hour	1.27 λ/hour	1.321 λ/hour	1.331 λ/hour	64.3	75.2	79.8	80.9	81.6	near-complete degradation	35	64.66% and 62.79% and 62.08%	74.90% and 74.15% and 73.38%	79.97% and 79.25% and 79.09%	81.84% and 80.21% and 81.34%	81.24% and 82.05% and 83.80%	CRBN binding FP, Activity (CRBN; SJ7095, [Compound] 0.00309 mM): 8.11 and 10.4932 and 6.274; CRBN binding FP, Activity (CRBN; SJ7095, [Compound] 0.02781 mM): 14.0709 and 18.2061 and 13.5714; CRBN binding FP, Activity (CRBN; SJ7095, [Compound] 0.08344 mM): 25.188 and 27.6328 and 27.8185; CRBN binding FP, Activity (CRBN; SJ7095, [Compound] 0.25033 mM): 29.8604 and 33.1175 and 27.1236; CRBN binding FP, Activity (CRBN; SJ7095, [Compound] 0.75100 mM): 30.8271 and 30.718 and 33.0309; CRBN binding FP, Activity (CRBN; SJ7095, [Compound] 2.25301 mM): 46.2943 and 45.8008 and 46.583; CRBN binding FP, Activity (CRBN; SJ7095, [Compound] 6.75903 mM): 54.5113 and 62.5976 and 51.6216; CRBN binding FP, Activity (CRBN; SJ7095, [Compound] 20.27708 mM): 59.0226 and 67.7395 and 53.7066
